Experimental data as given in patent US20130142830A1, “Tolerogenic Plasmacytoid Dendritic Cells Co-Expressing Cd8-Alpha And Cd8-Beta And Methods Of Inducing The Differentiation Of Regulatory T Cells Using Same” (UNIVERSITY OF SOUTHERN CALIFORNIA, priority 2011, published 2013).

Legend:
[1] = test system: pDCs; experiment: TLR7/TLR9 stimulation of pDC subsets (R848, CpG): co-stimulatory molecules, CD8 expression, IFN-α and IL-10 ELISA; assay type: cell-based, mouse; details: R848 10 μg/ml or CpG 10 μM, 18 hours
Description: (a) Plasmacytoid DCs were isolated by magnetic separation from lymph nodes of Flt3L-treated mice. The surface expression of the costimulation molecules CD80 and CD86 was assessed on CD8α^− CD8β^− pDCs, CD8α^+ CD8β^− pDCs and CD8α^+ CD8β^+ pDCs subtypes after 18 hours of stimulation with R848 (10 μg/ml) or CpG (10 μM). Data are representative of three similar experiments. Shaded histograms represent isotype control antibodies; dashed lines, specific staining of untreated cells; solid black lines, specific staining of CpG treated cells and solid grey lines, specific staining of R848 treated cells. […] Cells were then washed and stained with CD8α and CD8β^− antibodies, APC fluorescence was analyzed by flow cytometry in the CD8α^− CD8β^− pDCs, CD8α^+ CD8β^− pDCs or CD8α^+ CD8β^+ pDCs subpopulations. […] Data are average (mean fluorescence intensity (MFI) at 37° C.)−(MFI at 4° C.)±SEM of three separate experiments. […] The amount of radioactivity related to the number of cells was evaluated in a scintillation counter. […]
The main function of DCs is to prime naïve T cells by presenting antigen and providing additional signals through co-stimulatory molecules and production of cytokines. To address whether the populations of pDCs described herein differ in these functions, we stimulated them with TLR ligands and assessed the expression of co-stimulatory molecules along with the cytokine production. […]

[2] = test system: naive OVA-specific CD4+ T cells; experiment: In vitro co-culture of pDC subsets with naive OVA-specific CD4+ T cells, Foxp3 and IL-10 by flow cytometry; assay type: cell-based, mouse
Description: (a) Flow cytometry of intracellular expression of Foxp3 in CD4^+ T cells cultured with CD8α^− CD8β^− pDCs, CD8α^+ CD8β^− or CD8α^+ CD8β^+ pDCs. Sorted CD8α^− CD8β^−, CD8α^+ CD8β^− or CD8α^+ CD8β^+ pDCs were preincubated 12 hours with either medium or Galectin-3 (10 μg/ml). Cells were then washed and co-cultured with OVA-specific CD4^+ T cells at a 1:10 ratio (pDC:T CD4^+) for 5 days in presence of either OVA323-339 (1 μg/ml) and/or TGF-β (1 ng/ml) as indicated. Cells were subsequently stained with CD3, CD4 and CD25 antibodies fixed, permeabilized and stained with an anti-Foxp3 antibody before flow cytometry analysis. […]
(a) Gene expression of Aldhla1 Aldhla2, and Aldhla3 was assessed by real-time PCR in CD8α^−β^−, CD8α^+β^−, and CD8α^+β^+ pDCs from peripheral lymph nodes or in CD103^− and CD103^+ DCs from mesenteric lymph nodes of Fms-like tyrosine kinase 3-ligand (Flt3-L)-treated mice. […] P-values were calculated with Student's t-test. *P-value <0.05 (CD8α^+β^− pDC and CD8α^+β^+ pDC compared to CD8α^−β^−). ^#P-value <0.05 (CD103^+ cDC compared to CD103^− cDC). […] Cells were subsequently stained with anti-CD11c, anti-mPDCA1, anti-CD8α, and CD8αβ antibodies, and analyzed by flow cytometry to detect RALDH activity. […] Foxp3 expression was analyzed among CD3^+ CD4^+ CD25^+ cells; dot plots are representative of three independent experiments. […]

[3] = test system: DCs; experiment: In vivo expansion of DCs by Flt3L-expressing tumor cells; design: species or system mouse; details: Flt3L treatment of BALB/c mice
Description: To test whether an in vivo expansion of the population of DCs affects the expression of CD8α or CD8β at the surface of pDCs, tumor cells expressing Flt3L were transferred into BALB/c mice. Flt3L acts on hematopoietic stem cells and controls their differentiation into DCs, this treatment expands the population of DCs by 15 to 20 fold after 14 days without activating the cells. […] The expression of CD8α and CD8β was assessed simultaneously on pDCs (CD11c^+ BST2^+ cells) and on conventional DCs (cDCs, CD11c^+ BST2^− cells). At the surface of cDCs, only CD8α expression was detected (FIG. 2a). […] Accordingly, with the surface phenotype, CD8α gene expression was detected in CD8α^+β^− pDCs while both CD8α and CD8β genes were overexpressed in the CD8α^+β^+ subset (FIG. 2b). As expected CD8β gene expression was never detected in cDCs (FIG. 2b). […] Our data from B2m knockout mice confirmed the presence of CD8α or CD8β pDC repertoire, similar to the level detected in the wild type mice (FIG. 2c). To further assess the expression of CD8α or CD8β at mRNA level, we performed real time quantitative PCR on the sorted subpopulation of pDCs from B2m knockout mice and confirmed the results obtained in FIG. 2c at the mRNA expression level (FIG. 2d). […]

Molecule: CCOCc1nc2c(N)nc3ccccc3c2n1CC(C)(C)O [R848]
- expression of CD8α and CD8β on pDCs following TLR stimulation [1]: the expression of CD8α and CD8β decreases

Molecule: Galectin-3
- effect of Galectin-3 pre-incubation of pDCs on conversion of naive CD4+ T cells into Foxp3-expressing cells ([2]; Galectin-3 10 μg/ml, 12 hours pre-incubation, TGF-β present): boost the capacity of pDCs to convert naïve CD4^+ T cells into Foxp3-expressing cells

Molecule: CN1c2cc3c(cc2N=C(c2ccc(C(=O)O)cc2)c2ccc4ccccc4c21)C(C)(C)CCC3(C)C [LE540]
- effect of RALDH inhibitor on conversion of naive CD4+ T cells by CD8α+β+ and CD8α+β− pDCs ([2]; LE540 1 μM with TGF-β): completely blocked the conversion of naïve CD4^+ T cells

B1: Flt3L: delivered by tumor cells expressing Flt3L; controls differentiation of hematopoietic stem cells into DCs (protein, UniProt P49771 27-235, looked up)
Fms-related tyrosine kinase 3 …: TQDCSFQHSPISSDFAVKIRELSDYLLQDYPVTVASNLQDEELCGGLWRLVLAQRWMERLKTVAGSKMQGLLERVNTEIHFVTKCAFQPPPSCLRFVQTNISRLLQETSEQLVALKPWITRQNFSRCLELQCQPDSSTLPPPWSPRPLEATAPTAPQPPLLLLLLLPVGLLLLAAAWCLHWQRTRRRTPRPGEQVPPVPSPQDLLLVEH
- level of expression of CD8α and CD8β on pDCs [3]: does not significantly affect
